Source: US8344018B2, “Oxindolyl inhibitor compounds” (Gilead Sciences, Inc., priority 2008, dated 2013)
Where “and” joins values, the source holds several entries; their conditions need not be identical. Identical values can stand only once.

How the values were obtained:
HDAC 1 = HDAC 1 (Homo sapiens, UniProt Q13547); assay: HDAC 1 fluorescence assay with about 3 hours preincubation; type: biochemical; conditions: 3-hour preincubation of enzyme and compound; two numbers = two different lots of the compound; read-out: HDAC 1 inhibitory activity (IC50 [μM]) (3-hour preincubation)
Protocol: The second assay is similar to the first assay described above, except that preincubation is carried out for about 3 hours after the enzyme is introduced. The test compound was suspended in, and titrated in DMSO. It was then spotted into a 384-well test plate. The enzyme, HDAC 1, was diluted in the same assay buffer as used in the previous assay and added to the pre-spotted compound. The enzyme/compound mix was incubated at room temperature for about 3 hours. The peptide substrate containing a fluorophore/quencher pair was diluted in the assay buffer and added to the compound/enzyme mix initiating the reaction. The reaction incubated at room temperature for 45 minutes. A concentrated developer solution was diluted in the assay buffer, and added to the reaction. The reaction was incubated at room temperature for about 15 minutes and relative fluorescence was read on an instrument reader.
Where two numbers are given, the values are reported for measurements on two different lots of the compound.

CDK2 = CDK2 (Homo sapiens, UniProt P24941); assay: CDK2 inhibition; type: biochemical; conditions: two numbers = two different lots of the compound

Chain of HDAC 1 (Q13547 whole entry, species assumed): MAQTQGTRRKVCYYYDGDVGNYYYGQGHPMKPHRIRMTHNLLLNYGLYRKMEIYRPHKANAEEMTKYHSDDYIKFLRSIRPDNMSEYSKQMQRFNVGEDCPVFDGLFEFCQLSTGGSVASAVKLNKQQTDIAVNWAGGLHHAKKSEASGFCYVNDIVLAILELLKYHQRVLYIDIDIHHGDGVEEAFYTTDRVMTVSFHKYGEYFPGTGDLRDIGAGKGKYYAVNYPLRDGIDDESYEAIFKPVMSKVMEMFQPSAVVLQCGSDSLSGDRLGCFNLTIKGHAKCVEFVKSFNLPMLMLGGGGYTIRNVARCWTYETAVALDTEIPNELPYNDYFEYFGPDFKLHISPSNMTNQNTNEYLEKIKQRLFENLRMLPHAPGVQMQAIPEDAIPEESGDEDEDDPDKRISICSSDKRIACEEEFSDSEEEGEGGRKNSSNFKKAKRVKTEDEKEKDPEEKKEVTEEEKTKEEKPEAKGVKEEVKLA

Row | SMILES | IC50 (HDAC 1) | IC50 (CDK2)
1 | COC(=O)c1ccc2c(c1)/C(=C(\C)Nc1ccc(C(=O)Nc3ccccc3N)cc1)C(=O)N2 [Example 1, 3-{1-[4-(2-Amino-phenylcarbamoyl)-phenylamino]-ethylidene}-2-oxo-2,3-dihydro-1H-indole-5-carboxylic acid methyl ester] | 0.033 µM | 0.043 µM
2 | COC(=O)c1ccc2c(c1)/C(=C/Nc1ccc(C(=O)Nc3ccccc3N)cc1)C(=O)N2 [Example 2, 3-{[4-(2-Amino-phenylcarbamoyl)-phenylamino]-methylene}-2-oxo-2,3-dihydro-1H-indole-5-carboxylic acid methyl ester] | 0.17 µM | 0.07 µM
3 | C/C(Nc1ccc(C(=O)Nc2ccccc2N)cc1)=C1/C(=O)Nc2ccc(C#N)cc21 [Example 3, N-(2-Amino-phenyl)-4-[1-(5-cyano-2-oxo-1,2-dihydro-indol-3-ylidene)-ethylamino]-benzamide] | 0.029 µM and 0.021 µM | 0.01 µM and 0.02 µM
4 | CC(=O)c1ccc2c(c1)/C(=C(\C)Nc1ccc(C(=O)Nc3ccccc3N)cc1)C(=O)N2 [Example 4, 4-[1-(5-Acetyl-2-oxo-1,2-dihydro-indol-3-ylidene)-ethylamino]-N-(2-amino-phenyl)-benzamide] | 0.064 µM and 0.03 µM | 0.01 µM
5 | C/C(Nc1ccc(C(=O)Nc2ccccc2N)cc1)=C1/C(=O)Nc2ccc(C(=O)C(C)C)cc21 [Example 5, N-(2-Amino-phenyl)-4-[1-(5-isobutyryl-2-oxo-1,2-dihydro-indol-3-ylidene)-ethylamino]-benzamide] | 0.335 µM | 0.02 µM
6 | C/C(Nc1ccc(C(=O)Nc2ccccc2N)cc1)=C1/C(=O)Nc2ccc(S(=O)(=O)N3CCOCC3)cc21 [Example 6, N-(2-Amino-phenyl)-4-{1-[5-(morpholine-4-sulfonyl)-2-oxo-1,2-dihydro-indol-3-ylidene]-ethylamino}-benzamide] | 0.186 µM | 0.52 µM
7 | C/C(Nc1ccc(C(=O)Nc2ccccc2N)cc1)=C1/C(=O)Nc2ccc(-c3csc(C)n3)cc21 [Example 7, N-(2-Amino-phenyl)-4-{1-[5-(2-methyl-thiazol-4-yl)-2-oxo-1,2-dihydro-indol-3-ylidene]-ethylamino}-benzamide] | 0.232 µM | > 40 µM
8 | CC(Nc1ccc(C(=O)Nc2ccccc2N)cc1)=C1C(=O)Nc2ccc(S(C)(=O)=O)cc21 [Example 8, N-(2-Amino-phenyl)-4-[1-(5-methanesulfonyl-2-oxo-1,2-dihydro-indol-3-ylidene)-ethylamino]-benzamide] | 0.1 µM | 0.13 µM
9 | CN(C)CCNC(=O)c1ccc2c(c1)/C(=C/Nc1ccc(C(=O)Nc3ccccc3N)cc1)C(=O)N2 [Example 9, 3-{[4-(2-Amino-phenylcarbamoyl)-phenylamino]-methylene}-2-oxo-2,3-dihydro-1H-indole-5-carboxylic acid (2-dimethylamino-ethyl)-amide] | 0.063 µM | 0.25 µM
10 | C/C(Nc1ccc(C(=O)Nc2ccccc2N)cc1)=C1/C(=O)Nc2ccc(C(=O)O)cc21 [Example 10, 3-{1-[4-(2-Amino-phenylcarbamoyl)-phenylamino]-ethylidene}-2-oxo-2,3-dihydro-1H-indole-5-carboxylic acid] | 0.181 µM | 0.44 µM
11 | COC(=O)c1ccc2c(c1)/C(=C(\C)Nc1ccc(C(=O)NO)cc1)C(=O)N2 [Example 11, 3-[1-(4-Hydroxycarbamoyl-phenylamino)-ethylidene]-2-oxo-2,3-dihydro-1H-indole-5-carboxylic acid methyl ester] | 0.635 µM | > 40 µM
12 | C/C(Nc1ccc(C(=O)Nc2ccccc2N)cc1)=C1/C(=O)Nc2ccc(C(=O)N(C)C)cc21 [Example 12, 3-{1-[4-(2-Amino-phenylcarbamoyl)-phenylamino]-ethylidene}-2-oxo-2,3-dihydro-1H-indole-5-carboxylic acid dimethylamide] | 0.071 µM | 0.34 µM
13 | C/C(Nc1ccc(C(=O)Nc2ccccc2N)cc1)=C1/C(=O)Nc2ccc(C(C)O)cc21 (centres unmarked) [Example 13, N-(2-Amino-phenyl)-4-{1-[5-(1-hydroxy-ethyl)-2-oxo-1,2-dihydro-indol-3-ylidene]-ethylamino}-benzamide] | 0.036 µM | 1.01 µM
